Patent US12234223B2, “Phthalazinone compound, and preparation method therefor and medical use thereof” (SHANGHAI JEMINCARE PHARMACEUTICALS CO., LTD, priority 2020, dated 2025)

Assay: In-vivo pharmacokinetics in rats, oral administration
Design: species or system male SD rats
Details: for AUC(0-inf) / Cmax / half-life: male, SD, rat, oral 10 mg/kg, plasma; for F: oral 10 mg/kg vs intravenous 1 mg/Kg
Method: In this experimental example, the in-vivo pharmacokinetic evaluation was made for rats by intravenous injection and oral administration.
Experimental methods and conditions: male SD rats, 6 to 8 weeks old; all animals had free access to food and water; 5 min, 15 min, 30 min, 1 hr, 2 hr, 4 hr, 8 hr, 24 hr and 48 hr after the rats were subjected to a single intravenous injection of 1 mg/Kg of a compound to be tested (solvent 5% DMSO/15% Solutol/80% Saline), or 15 min, 30 min, 1 hr, 2 hr, 4 hr, 6 hr, 8 hr, 24 hr and 48 hr after the rats were subjected to oral intragastric administration of 10 mg/kg (solvent 5% DMSO/10% Solutol/85% Saline), blood was collected from orbits, not less than 50 μL of each sample was collected, and heparin sodium was used for anticoagulation; the collected samples were placed on ice, and the plasma was centrifugally separated within 1 hour for testing. The drug concentration in the plasma was detected by liquid chromatography tandem mass spectrometry (LC/MS/MS), and the pharmacokinetic parameters were calculated by Phoenix WinNonlin software. Embodiment 82 in CN110612294 A was taken as a control sample 1.

| AUC(0-inf) | Cmax | half-life | F | Structure (SMILES) |
| --- | --- | --- | --- | --- |
| 2650 ng·h/mL | 147 ng/mL | 7.62 h | 11.9% | CC1(C)[C@H](NC(=O)c2ccc(N3CCC(CN4CCN(c5ccc6c(=O)n(C7CCC(=O)NC7=O)ncc6c5)CC4)CC3)cc2)C(C)(C)[C@H]1Oc1ccc(C#N)c(Cl)c1 (stereo partly drawn) [Compound 1] |
| 3210 ng·h/mL | 173 ng/mL | 8.28 h | 5.13% | CC1(C)[C@H](NC(=O)c2ccc(N3CCC(CN4CCN(c5ccc6c(=O)n([C@H]7CCC(=O)NC7=O)ncc6c5)CC4)CC3)cc2)C(C)(C)[C@H]1Oc1ccc(C#N)c(Cl)c1 [Compound 28A] |
| 6200 ng·h/mL | 253 ng/mL | 13.4 h | 11.9% | CC1(C)[C@H](NC(=O)c2ccc(N3CCC(CN4CCN(c5ccc6c(=O)n(C7CCC(=O)NC7=O)nc(F)c6c5)CC4)CC3)cc2)C(C)(C)[C@H]1Oc1ccc(C#N)c(Cl)c1 (stereo partly drawn) [Compound 29] |
